Consider one compound from US20140135390A1, “Modified Platinum Compounds” (priority 2011, published 2014).

The subject of one data set is treated patients. The conditions noted are these: dose limiting toxicity; cited from earlier work.
For data set [1], the system named is murine breast cancer cells EMT-6. The experiment in a line: In vitro cell viability of EMT-6 cells after 48 hours incubation, viable cells counted with a hemocytometer. Format: cell-based. The conditions noted are these: 1 μM, 50 μM and 100 μM. Here is the method: A murine breast cancer cells EMT-6 (0.5*10^6 cells/plate) were plated and grown in Dulbecco's Modified Eagle Medium (DMEM) supplemented with 10% FBS, 2% L-Glutamine Solution (200 mM), 2% Pen-Strep Solution (Biological Industries), and […] D-Glucose under regular growth conditions: 5% CO2, and 37.6° C.
After the incubation time, cells were washed with PBS (3 times), harvested using Trypsin-EDTA solution (Biological Industries), and the number of viable cells was counted under microscope using a microscope counting chamber (Hemocytometer).

For `N.N.[Cl][Pt][Cl]` [Cisplatin, cis-diamminedichloroplatinum(II)], the “sensory neuropathy, share of treated patients” value in the data set with treated patients was “more than 20%”. For the same compound, in data set [1], the “toxicity to the cells / effect on cell number (FIG. 1)” value was “dose-dependent reduction in the cells”.
